Legend:
[1] = tested on: human primary cell-based systems; assay: BioMAP Diversity PLUS panel, phenotypic profiling; details: tested at 6.7 and/or 20 μM; 24 to 72 hours
Procedure: (§1) Anti-inflammatory phenotypic profiling was conducted across 12 human primary cell-based systems as part of DiscoverX's BioMAP Diversity Plus program. These systems are designed to model complex human tissue and disease biology of the vasculature, skin, lung, and inflammatory tissues. Quantitative measurements of biomarker activities across this broad panel were used to assess each biochemical's anti-inflammatory activity at four concentrations ([…] and 2.2, 6.7 and 20 μM). […] Protein-based biomarkers from activated cell systems were measured and compared with controls.
(§2) The Diversity PLUS panel allows test agent characterization in an unbiased way across a broad set of systems modeling various human disease states. These systems are designed to model complex human tissue and disease biology of the vasculature, skin, lung, and inflammatory tissues. Quantitative measurements of 148 biomarker activities across this broad panel, along with comparative analysis of biological activities from known bioactive agents, were used to predict and compare the efficacy and function of each selected compound at selected concentrations (6.7 and/or 20 μM).
(§3) BioMAP systems are constructed with one or more primary cell types from healthy human donors, with stimuli (such as cytokines or growth factors) added to capture relevant signaling networks that naturally occur in human tissue or pathological conditions. Vascular biology is modeled in both a Th1 (3C system) and a Th2 (4H system) inflammatory environment, as well as in a Th1 inflammatory state specific to arterial smooth muscle cells (CASM3C system). Additional systems recapitulate aspects of the systemic immune response including monocyte-driven Th1 inflammation (LPS system) or T cell stimulation (SAg system), chronic Th1 inflammation driven by macrophage activation (lMphg system) and the T cell-dependent activation of B cells that occurs in germinal centers (BT system). The BE3C system (Th1) and the BF4T system (Th2) represent airway inflammation of the lung, while the MyoF system models myofibroblast-lung tissue remodeling. Lastly, skin biology is addressed in the KF3CT system modeling Th1 cutaneous inflammation and the HDF3CGF system modeling wound healing.
(§4) Each test agent generates a signature BioMAP profile that is created from the changes in protein biomarker readouts within individual system environments. Biomarker readouts (7-17 per system) are selected for therapeutic and biological relevance, are predictive for disease outcomes or specific drug effects and are validated using agents with known mechanism of action (MoA). Each readout is measured quantitatively by immune-based methods that detect protein (e.g., ELISA) or functional assays that measure proliferation and viability. BioMAP readouts are diverse and include cell surface receptors, cytokines, chemokines, matrix molecules and enzymes. In total, the Diversity PLUS panel contains 148 biomarker readouts that capture biological changes that occur within the physiological context of the particular BioMAP system.
(§5) Activated BioMAP systems were incubated with each compound for 24 to 72 hours. Protein-based biomarkers from activated cell systems were measured and compared with non-treated control systems.

[2] = tested on: /Mphg: Macrophages, venular endothelial cells (TLR2 ligand); assay: BioMAP /Mphg system; type: cell-based, human; details: at the compound's active concentration
Source text: as §2, §3
as §4, with “system. […]” for “system.”
as §5

[3] = tested on: LPS: Venular endothelial cells, peripheral blood mononuclear cells (TLR4 ligand); assay: BioMAP LPS system; type: cell-based, human; details: at the compound's active concentration
Procedure: as §1, with “controls. Biomarker activities were annotated when 2 or more consecutive concentrations change in the same directions relative to vehicle controls, were outside of the significance envelope and had at least one concentration with an effect size>20% (log 10 ratio)>0.1.” for “controls.”
In the first system, human primary peripheral blood mononuclear cells and venular endothelial cells were stimulated with lipopolysaccharide (LPS) and incubated with the test agent, drug control, or vehicle control for 24 hours. In the second system, peripheral blood mononuclear cells and B cells were stimulated with α-IgM and T cell receptor ligands and incubated with the test agent, drug control, or vehicle control for 24 hours. In both systems, a negative, non-stimulated system was also included.
as §2, §3
as §4, with “system. […]” for “system.”

[4] = tested on: 4H: Venular endothelial cells (IL-4, histamine); assay: BioMAP 4H system; type: cell-based, human; details: at the compound's active concentration
Source text: as §2
BioMAP systems are constructed with one or more primary cell types from healthy human donors, with stimuli (such as cytokines or growth factors) added to capture relevant signaling networks that naturally occur in human tissue or pathological conditions. Vascular biology is modeled in both a Th1 (3C system) and a Th2 (4H system) inflammatory environment, as well as in a Th1 inflammatory state specific to arterial smooth muscle cells (CASM3C system). […]
as §4, with “system. […]” for “system.”
as §5

SMILES: O=C(O)CNC(=O)c1ccccc1 [hippurate]
- Active concentrations [1]: 6.7 to 20 µM
- IL-8, log10 reduction vs nontreated controls [2]: −0.12 log10
- CD40, log10 reduction vs nontreated controls [3]: −0.11 log10
- P-selectin, log10 reduction vs nontreated controls [4]: −0.10 log10
